Test results as given in patent US20210300943A1, “OGA INHIBITOR COMPOUNDS” (Janssen Pharmaceutica NV, priority 2018, published 2021).

Molecular target: T1, OGA (Mus musculus, UniProt Q9EQQ9)
T1 construct: from tissue; host or cells: mouse brain (right hemisphere sagittal sections, forebrain area)
T1 sequence (Q9EQQ9 1-916): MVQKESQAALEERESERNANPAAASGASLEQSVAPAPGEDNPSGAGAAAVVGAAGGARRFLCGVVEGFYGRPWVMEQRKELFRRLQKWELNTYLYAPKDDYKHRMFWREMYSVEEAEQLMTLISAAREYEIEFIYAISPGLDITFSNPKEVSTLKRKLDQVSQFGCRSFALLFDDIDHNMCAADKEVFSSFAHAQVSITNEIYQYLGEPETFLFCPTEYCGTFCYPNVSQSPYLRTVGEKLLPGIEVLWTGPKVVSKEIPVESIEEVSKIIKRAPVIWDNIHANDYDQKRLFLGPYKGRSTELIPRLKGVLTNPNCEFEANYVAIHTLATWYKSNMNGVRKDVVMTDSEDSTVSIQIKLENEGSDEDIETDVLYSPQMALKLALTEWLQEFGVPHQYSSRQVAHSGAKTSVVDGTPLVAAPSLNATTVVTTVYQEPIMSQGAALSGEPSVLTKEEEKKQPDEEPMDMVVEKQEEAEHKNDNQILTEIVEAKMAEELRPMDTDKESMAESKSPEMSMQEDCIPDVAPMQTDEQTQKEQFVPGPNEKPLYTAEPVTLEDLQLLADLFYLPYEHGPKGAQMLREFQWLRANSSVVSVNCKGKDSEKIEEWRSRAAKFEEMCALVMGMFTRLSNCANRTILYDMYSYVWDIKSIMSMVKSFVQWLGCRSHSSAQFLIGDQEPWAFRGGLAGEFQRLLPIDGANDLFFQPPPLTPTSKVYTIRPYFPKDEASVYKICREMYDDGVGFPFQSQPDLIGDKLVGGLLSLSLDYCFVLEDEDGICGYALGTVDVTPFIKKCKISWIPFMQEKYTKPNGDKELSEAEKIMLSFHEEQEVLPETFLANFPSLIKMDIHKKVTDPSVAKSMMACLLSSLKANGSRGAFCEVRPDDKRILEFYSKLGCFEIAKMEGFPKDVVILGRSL
Assay: Ex vivo OGA occupancy assay using [3H]-ligand
Type: in vivo
Settings: po, male NMRI or C57Bl6j mice, p.o., 24 h after administration, forebrain area of brain sections, 3 nM [3H]-ligand, normalised to vehicle, read-out: Occupancy (% +/- sd)
Description: Ex Vivo Oga Occupancy Assay Using [^3H]-Ligand
Drug Treatment and Tissue Preparation
Male NMRI or C57Bl6j mice were treated by oral (p.o.) administration of vehicle or compound. Animals were sacrificed 24 hours after administration. Brains were immediately removed from the skull, hemispheres were separated and the right hemisphere, for ex vivo OGA occupancy assay, was rapidly frozen in dry-ice cooled 2-methylbutane (−40° C.). […] sagittal sections were cut using a Leica CM 3050 cryostat-microtome (Leica, Belgium), thaw-mounted on microscope slides (SuperFrost Plus Slides, Thermo Fisher Scientific) and stored at −20° C. until use. After thawing, sections were dried under a cold stream of air. The sections were not washed prior to incubation. The 10 minutes incubation with 3 nM [^3H]-ligand was rigorously controlled. All brain sections (from compound-treated and vehicle-treated animals) were incubated in parallel. […]
Quantitative autoradiography and data analysis Radioactivity in the forebrain area of brain slices was measured using a β-imager with M3 vision analysis software (Biospace Lab, Paris). Specific binding was calculated as the difference between total binding and non-specific binding measured in Thiamet-G (10 μM) treated sections. […]

receptor occupancy at 25 mg/kg | SMILES
20.7% | Cc1cc([C@H]2CCCN(C(C)c3cnc4c(c3)OCCN4)C2)cc(C)n1 (single isomer, unassigned) [Product 135]
92.7% | Cc1cc(OC[C@H]2CCCN(C(C)c3nc4c(cc3F)OCCO4)C2)cc(C)n1 (single isomer, unassigned) [Product 155]
